Assay results as given in ChEMBL document CHEMBL3272342, “Nonsteroidal antiinflammatory agents. 2. Synthesis and biological activity of 2-chloroindolecarboxylic acids” (J Med Chem, 1977).

Columns and labels:
Rattus norvegicus [1] = assay: Antiinflammatory activity in Wistar rat assessed as inhibition of carrageenan-induced edema measured as increase in foot volume at 5 mg/kg, po administered 1 hr prior challenge measured 3 hrs after carrageenin injection (reference value: 187.6 %); format: functional; design: scale not given: the % may be the effect or the level left
Rattus norvegicus [2] = assay: Antiinflammatory activity in Wistar rat assessed as inhibition of carrageenan-induced edema measured as increase in foot volume at 20 mg/kg, po administered 1 hr prior challenge measured 3 hrs after carrageenin injection (reference value: 187.6 %); format: functional; design: scale not given: the % may be the effect or the level left
Rattus norvegicus [3] = assay: Antiinflammatory activity in Wistar rat assessed as inhibition of carrageenan-induced edema measured as increase in foot volume at 40 mg/kg, po administered 1 hr prior challenge measured 3 hrs after carrageenin injection (reference value: 187.6 %); format: functional; design: scale not given: the % may be the effect or the level left
Rattus norvegicus [4] = assay: Antiinflammatory activity in Wistar rat assessed as inhibition of carrageenan-induced edema measured as increase in foot volume at 5 mg/kg, po administered 1 hr prior challenge measured 7 hrs after carrageenin injection (reference value: 178.8 %); format: functional; design: scale not given: the % may be the effect or the level left
Rattus norvegicus [5] = assay: Antiinflammatory activity in Wistar rat assessed as inhibition of carrageenan-induced edema measured as increase in foot volume at 20 mg/kg, po administered 1 hr prior challenge measured 7 hrs after carrageenin injection (reference value: 178.8 %); format: functional; design: scale not given: the % may be the effect or the level left
Rattus norvegicus [6] = assay: Antiinflammatory activity in Wistar rat assessed as inhibition of carrageenan-induced edema measured as increase in foot volume at 40 mg/kg, po administered 1 hr prior challenge measured 7 hrs after carrageenin injection (reference value: 178.8 %); format: functional; design: scale not given: the % may be the effect or the level left
[7] = Toxicity in ip dosed Swiss mouse; format: organism-based; conditions: in vivo

| Structure (SMILES) | Activity (Rattus norvegicus [1]) [%] | Activity (Rattus norvegicus [2]) [%] | Activity (Rattus norvegicus [3]) [%] | Activity (Rattus norvegicus [4]) [%] | Activity (Rattus norvegicus [5]) [%] | Activity (Rattus norvegicus [6]) [%] | LD50 [7] [mg/kg] |
| --- | --- | --- | --- | --- | --- | --- | --- |
| O=C(O)c1c(Cl)[nH]c2ccccc12 | 153.1 | 161.7 | 156.4 | 143.4 | 153.5 | 132.1 | > 500 |
| Cn1c(Cl)c(C(=O)O)c2ccccc21 | 145.1 | 146.5 | 148.3 | 133.3 | 133.8 | 150.7 | > 500 |
| O=C(O)c1c(Cl)n(-c2ccccc2)c2ccccc12 | 159.8 | 149.4 | 173.8 | 151.4 | 130.1 | 201.1 | > 500 |
| O=C(O)Cc1c(Cl)n(-c2ccccc2)c2ccccc12 | 170.3 | 165.9 | 138 | 200.9 | 191.8 | 186.4 | > 500 |
| COc1ccc2c(c1)c(CC(=O)O)c(C)n2C(=O)c1ccc(Cl)cc1 [INDOMETHACIN] | 98.5 |  |  | 106.8 |  |  |  |
